From publication PMC11243320, “Tailoring Fibroblast-Activation Protein Targeting for Theranostics: A Comparative Preclinical Evaluation of the ^68Ga- and ^177Lu-Labeled Monomeric and Dimeric Fibroblast-Activation Protein Inhibitors DOTA.SA.FAPi and DOTAGA.(SA.FAPi)2” (Molecules, 2024)

System: PC3 tumor-bearing mice
Assay: Ex vivo biodistribution of 177Lu-labeled radiotracers in PC3 xenografts
Conditions: for Biodistribution Blood / Biodistribution Bone / Biodistribution Heart / Biodistribution Intestine / Biodistribution Kidney / Biodistribution Liver / Biodistribution Lung / Biodistribution Muscle / Biodistribution PC3-Tumor / Biodistribution Pancreas / Biodistribution Spleen / Biodistribution Stomach / Tumor/Blood ratio / Tumor/Liver ratio / Tumor/Muscle ratio / Tumor/Pancreas ratio: PC3 xenografts
Experimental: U87MG and PC3 tumor-bearing mice: Female athymic BALB/c (6 weeks/16–20 g) and male athymic BALB/c nude mice (6 weeks/20–25 g) were implanted with U87MG or PC3 cells (5 × 10^6/100 µL PBS) into their right shoulder, respectively. The animals were used for biodistribution and PET/SPECT/CT imaging studies (Animal License No: BE98/2021).
Ten pmol (0.06–0.08 MBq) of the radiotracers in 100 µL of NaCl 0.9% were injected intravenously into the tail vein of PC3 tumor-bearing mice. Biodistribution studies were conducted at 1, 4, 24, and 48 h after the injection of [^177Lu]Lu-DOTA.SA.FAPi and at 4, 24, 48, 72, and 96 h after the injection of [^177Lu]Lu-DOTAGA.(SA.FAPi)2 (Supplemental Data). […]
was counted in a γ-counter. Biodistribution data are given as the percent of injected activity per gram of tissue (% IA/g) and as means ± SD (n = 4). […]
[177Lu]Lu-DOTA.SA.FAPi and [177Lu]Lu-DOTAGA.(SA.FAPi)2
Ten pmol (0.06-0.08 MBq) of [177Lu]Lu-monomer and [177Lu]Lu-dimer in 100 µL of NaCl 0.9% were injected intravenously into the tail vein of PC3 tumor-bearing mice. The PC3 tumor-bearing mice were used between the 15th and 17th day after the xenograft implantation and its size was 281 ± 75 mm3. Animals were terminally anesthetized by intraperitoneal injection of an overdose of pentobarbital natrium (150 mg/kg; Streuli Pharma SA, Uznach, Switzerland) 1, 4, 24 and 48 h after the injection of [177Lu]Lu-DOTA.SA.FAPi and at 4, 24, 48, 72 and 96 h after the injection of [177Lu]Lu-DOTAGA.(SA.FAPi)2. The organs of interest were dissected and weighed, and the radioactivity in the tissue samples was counted in a γ-counter. The biodistribution data are given as the percent of injected activity per gram of tissue (% IA/g) and as means ± SD (n = 4). […]
0.25mm. The reconstructed data were corrected for Lutetium-177 decay, normalized, and filtered using a Gaussian 3D algorithm with a 2 mm isotropic kernel and generated using PMOD software. […]
The color scale of […]
the SPECT images was set as 0 to 13% IA/mL allowing for qualitative comparisons among the images.

SMILES: N#C[C@@H]1CC(F)(F)CN1C(=O)CNC(=O)c1ccnc2ccc(OCCCCNc3c(NCCNC(=O)CN4CCN(CC(=O)[O-])CCN(CC(=O)[O-])CCN(CC(=O)[O-])CC4)c(=O)c3=O)cc12.[177Lu+3] [[^177Lu]Lu-DOTA.SA.FAPi]
- PC3 tumor uptake (PC3 tumor-bearing mice, 4 h p.i.): 8.9 ± 0.2 %I.A./g
- Biodistribution Blood (1 h): 9.1 ± 1.8 % IA/g
- Biodistribution Bone (1 h): 4.0 ± 0.5 % IA/g
- Biodistribution Heart (1 h): 3.1 ± 0.7 % IA/g
- Biodistribution Intestine (1 h): 3.2 ± 0.4 % IA/g
- Biodistribution Kidney (1 h): 4.3 ± 0.5 % IA/g
- Biodistribution Liver (1 h): 3.8 ± 0.2 % IA/g
- Biodistribution Lung (1 h): 4.3 ± 0.6 % IA/g
- Biodistribution Muscle (1 h): 3.7 ± 1.0 % IA/g
- Biodistribution PC3-Tumor (1 h): 9.6 ± 0.9 % IA/g
- Biodistribution Pancreas (1 h): 12 ± 1.1 % IA/g
- Biodistribution Spleen (1 h): 3.0 ± 0.1 % IA/g
- Biodistribution Stomach (1 h): 2.5 ± 0.3 % IA/g
- Tumor/Blood ratio (1 h): 1.1
- Tumor/Liver ratio (1 h): 2.2 ± 0.2
- Tumor/Muscle ratio (1 h): 2.8 ± 1.0
- Tumor/Pancreas ratio (1 h): 0.8 ± 0.1
- Biodistribution Blood (4 h): 3.1 ± 0.2 % IA/g
- Biodistribution Bone (4 h): 4.2 ± 0.6 % IA/g
- Biodistribution Heart (4 h): 1.5 ± 0.3 % IA/g
- Biodistribution Intestine (4 h): 1.8 ± 0.3 % IA/g
- Biodistribution Kidney (4 h): 2.6 ± 0.03 % IA/g
- Biodistribution Liver (4 h): 3.0 ± 0.1 % IA/g
- Biodistribution Lung (4 h): 1.7 ± 0.07 % IA/g
- Biodistribution Muscle (4 h): 2.3 ± 0.1 % IA/g
- Biodistribution PC3-Tumor (4 h): 8.9 ± 0.2 % IA/g
- Biodistribution Pancreas (4 h): 5.3 ± 0.4 % IA/g
- Biodistribution Spleen (4 h): 1.7 ± 0.1 % IA/g
- Biodistribution Stomach (4 h): 1.7 ± 0.5 % IA/g
- Tumor/Blood ratio (4 h): 2.9 ± 0.2
- Tumor/Liver ratio (4 h): 3.0 ± 0.1
- Tumor/Muscle ratio (4 h): 3.9 ± 0.1
- Tumor/Pancreas ratio (4 h): 1.7 ± 0.2
- Biodistribution Blood (24 h): 0.2 ± 0.09 % IA/g
- Biodistribution Bone (24 h): 0.7 ± 0.2 % IA/g
- Biodistribution Heart (24 h): 0.1 ± 0.04 % IA/g
- Biodistribution Intestine (24 h): 0.2 ± 0.02 % IA/g
- Biodistribution Kidney (24 h): 0.6 ± 0.06 % IA/g
- Biodistribution Liver (24 h): 1.9 ± 0.3 % IA/g
- Biodistribution Lung (24 h): 0.2 ± 0.03 % IA/g
- Biodistribution Muscle (24 h): 0.3 ± 0.04 % IA/g
- Biodistribution PC3-Tumor (24 h): 1.8 ± 0.1 % IA/g
- Biodistribution Pancreas (24 h): 0.3 ± 0.1 % IA/g
- Biodistribution Spleen (24 h): 0.2 ± 0.03 % IA/g
- Biodistribution Stomach (24 h): 0.1 ± 0.02 % IA/g
- Biodistribution Blood (48 h): 0.01 ± 0.0 % IA/g
- Biodistribution Bone (48 h): 0.1 ± 0.01 % IA/g
- Biodistribution Heart (48 h): 0.03 ± 0.02 % IA/g
- Biodistribution Intestine (48 h): 0.04 ± 0.0 % IA/g
- Biodistribution Kidney (48 h): 0.12 ± 0.07 % IA/g
- Biodistribution Liver (48 h): 1.1 ± 0.1 % IA/g
- Biodistribution Lung (48 h): 0.05 ± 0.04 % IA/g
- Biodistribution Muscle (48 h): 0.05 ± 0.07 % IA/g
- Biodistribution PC3-Tumor (48 h): 1.0 ± 0.1 % IA/g
- Biodistribution Pancreas (48 h): 0.06 ± 0.01 % IA/g
- Biodistribution Spleen (48 h): 0.1 ± 0.06 % IA/g
- Biodistribution Stomach (48 h): 0.05 ± 0.02 % IA/g
